# Experimental data: ChEMBL document CHEMBL5370649, “Novel Coumarin Derivatives Inhibit the Quorum Sensing System and Iron Homeostasis as Antibacterial Synergists against Pseudomonas aeruginosa” (J Med Chem, 2023)
# Calls of active or inactive are those of the source. No cut-off for these calls is given here.
# How the values were obtained:
# Pseudomonas aeruginosa [1] = experiment: Antibacterial activity against Pseudomonas aeruginosa PAO1 in ABTGC medium assessed as bacterial growth inhibition incubated for 16 hrs; assay type: functional
# Pseudomonas aeruginosa [2] = experiment: Antibiofilm activity against Pseudomonas aeruginosa PAO1 assessed as inhibition of biofilm formation at 0.5 to 10 uM incubated for 24 hrs by SYTO9 and PI staining based 3D fluorescence confocal microscopy imaging analysis; assay type: functional, organism-based; conditions: dose 0.5-10 µM
# [3] = target: T1, Transcriptional activator protein LasR (Pseudomonas aeruginosa (strain ATCC 15692 / PAO1 / 1C / PRS 101 / LMG12228)) (UniProt P25084); experiment: Inhibition of LasR-mediated quorum sensing system in Pseudomonas aeruginosa PAO1 assessed as inhibition of elastase production at 1.25 to 20 uM incubated for 24 hrs using BODIPY-FL-labeled DQ elastin conjugate as substrate by fluorometric method; conditions: dose 1.25-20 µM
# T1 sequence (whole entry): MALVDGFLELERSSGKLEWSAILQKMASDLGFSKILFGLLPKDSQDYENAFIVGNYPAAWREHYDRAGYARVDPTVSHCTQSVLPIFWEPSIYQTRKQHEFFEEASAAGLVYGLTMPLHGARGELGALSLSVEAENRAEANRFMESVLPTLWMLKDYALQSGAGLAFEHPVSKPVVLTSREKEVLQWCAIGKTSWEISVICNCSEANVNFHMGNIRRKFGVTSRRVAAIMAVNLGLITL
# [4] = target: T2, HTH-type quorum-sensing regulator RhlR (Pseudomonas aeruginosa (strain ATCC 15692 / PAO1 / 1C / PRS 101 / LMG12228)) (UniProt P54292); experiment: Inhibition of RhlR-mediated quorum sensing system in Pseudomonas aeruginosa PAO1 assessed as inhibition of pyocyanin production at 1.25 to 20 uM incubated for 24 hrs by absorbance based assay; conditions: dose 1.25-20 µM
# T2 sequence (whole entry): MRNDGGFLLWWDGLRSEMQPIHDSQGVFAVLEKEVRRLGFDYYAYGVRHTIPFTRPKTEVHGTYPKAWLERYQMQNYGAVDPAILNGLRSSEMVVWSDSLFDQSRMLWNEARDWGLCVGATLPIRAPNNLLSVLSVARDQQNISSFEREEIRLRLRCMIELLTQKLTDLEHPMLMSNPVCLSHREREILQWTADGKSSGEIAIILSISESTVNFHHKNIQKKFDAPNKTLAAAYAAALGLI
# [5] = Inhibition of quorum sensing system in Pseudomonas aeruginosa PAO1-gfp assessed as inhibition of GFP fluorescence expression at 1.25 to 20 uM and measured for 12 hrs at 15 mins interval by fluorescence assay; conditions: dose 1.25-20 µM
# [6] = Metal chelating activity assessed as Fe3+-compound complex formation assessed as pFe(III) value by fluorescence method
# Pseudomonas aeruginosa [7] = experiment: Inhibition of iron homeostasis in Pseudomonas aeruginosa PAO1 in ABTGC medium assessed as increase in iron-free pyoverdine production at 1.25 to 20 uM in presence of FeCl3 by fluorescence based microplate reader analysis; assay type: functional, organism-based; conditions: dose 1.25-20 µM
# Pseudomonas aeruginosa [8] = experiment: Inhibition of iron homeostasis in Pseudomonas aeruginosa PAO1 in ABTGC medium assessed as increase in iron-free pyochelin production at 1.25 to 20 uM in presence of FeCl3 by fluorescence based microplate reader analysis; assay type: functional, organism-based; conditions: dose 1.25-20 µM
# Pseudomonas aeruginosa [9] = experiment: Antibiofilm activity against Pseudomonas aeruginosa PAO1 fpvA-overexpressing mutant assessed as inhibition of biofilm formation at 1.25 to 20 uM incubated for 24 hrs by crystal violet staining based absorbance assay; assay type: functional, organism-based; conditions: dose 1.25-20 µM
# Pseudomonas aeruginosa [10] = experiment: Inhibition of iron homeostasis in Pseudomonas aeruginosa PAO1 in ABTGC medium assessed as decrease in iron level at 1.25 to 20 uM in presence of FeCl3 by fluorescence based microplate reader analysis (Rvb= 9.6+/-2.00 microM); assay type: functional; conditions: dose 1.25-20 µM
# Pseudomonas aeruginosa [11] = experiment: Upregulation of pchB expression in Pseudomonas aeruginosa PAO1 at 20 uM incubated for 24 hrs by RNA sequencing analysis; assay type: functional
# Pseudomonas aeruginosa [12] = experiment: Upregulation of pvdF expression in Pseudomonas aeruginosa PAO1 at 20 uM incubated for 24 hrs by RNA sequencing analysis; assay type: functional
# Pseudomonas aeruginosa [13] = experiment: Upregulation of fpvA expression in Pseudomonas aeruginosa PAO1 at 20 uM incubated for 24 hrs by RNA sequencing analysis; assay type: functional
# Pseudomonas aeruginosa [14] = experiment: Downregulation of trpG expression in Pseudomonas aeruginosa PAO1 at 20 uM incubated for 24 hrs by RNA sequencing analysis; assay type: functional
# Pseudomonas aeruginosa [15] = experiment: Downregulation of pqsA expression in Pseudomonas aeruginosa PAO1 at 20 uM incubated for 24 hrs by RNA sequencing analysis; assay type: functional
# Pseudomonas aeruginosa [16] = experiment: Downregulation of rhlB expression in Pseudomonas aeruginosa PAO1 at 20 uM incubated for 24 hrs by RNA sequencing analysis; assay type: functional
# Pseudomonas aeruginosa [17] = experiment: Downregulation of pilB expression in Pseudomonas aeruginosa PAO1 at 20 uM incubated for 24 hrs by RNA sequencing analysis; assay type: functional
# Pseudomonas aeruginosa [18] = experiment: Downregulation of phyllo expression in Pseudomonas aeruginosa PAO1 at 20 uM incubated for 24 hrs by RNA sequencing analysis; assay type: functional
# Pseudomonas aeruginosa [19] = experiment: Antibacterial activity against Pseudomonas aeruginosa PAO1 in ABTGC medium assessed as bacterial growth inhibition at 1.25 to 20 uM incubated for 16 hrs; assay type: functional, organism-based; conditions: dose 1.25-20 µM
# L02 = experiment: Cytotoxicity against human L02 cells assessed as reduction in cell viability upto 50 uM incubated for 24 hrs by MTT assay; assay type: toxicity, cell-based; conditions: l02, 24 h
# Pseudomonas aeruginosa [20] = experiment: Synergistic antibacterial activity against Pseudomonas aeruginosa PAO1 infected in Balb/c mouse wound infection model assessed as reduction in bacterial survival rate at wounded area at 50 uM,TOP QD for 3 days in presence of Tobramycin by CFU assay; assay type: functional; conditions: time 3 day
# [21] = Toxicity in Balb/c mouse wound infection model infected with Pseudomonas aeruginosa PAO1 assessed as body weight change at 50 uM,TOP for 3 days in Ciprofloxacin; conditions: in vivo, topical_or_ocular, 72 h, time 3 day
# [22] = Toxicity in Balb/c mouse wound infection model infected with Pseudomonas aeruginosa PAO1 assessed as body weight change at 50 uM,TOP for 3 days in Tobramycin; conditions: in vivo, topical_or_ocular, 72 h, time 3 day
# [23] = Toxicity in Balb/c mouse wound infection model infected with Pseudomonas aeruginosa PAO1 assessed as morphological changes in liver at 50 uM,TOP for 3 days in Ciprofloxacin by H and E staining based analysis; assay type: tissue-based; conditions: in vivo, topical_or_ocular, 72 h, time 3 day
# [24] = Toxicity in Balb/c mouse wound infection model infected with Pseudomonas aeruginosa PAO1 assessed as morphological changes in kidney at 50 uM,TOP for 3 days in Ciprofloxacin by H and E staining based analysis; assay type: tissue-based; conditions: in vivo, topical_or_ocular, 72 h, time 3 day
compound,measurement,setting,value
Cc1ccc2oc(=O)cc(OCCCCCCC(=O)NO)c2c1,MIC,Pseudomonas aeruginosa [1],> 256 µM
same,inhibition,Pseudomonas aeruginosa [2],Active
same,inhibition,[3],Dose-Dependent Effect
same,inhibition,[4],inactive
same,inhibition,[5],inactive
same,pFe(III),[6],20.1
same,inhibition,Pseudomonas aeruginosa [7],Active
same,inhibition,Pseudomonas aeruginosa [8],Active
same,inhibition,Pseudomonas aeruginosa [9],inactive
same,Activity,Pseudomonas aeruginosa [10],6.96 µM
same,Activity,Pseudomonas aeruginosa [11],Active
same,Activity,Pseudomonas aeruginosa [12],Active
same,Activity,Pseudomonas aeruginosa [13],Active
same,Activity,Pseudomonas aeruginosa [14],Active
same,Activity,Pseudomonas aeruginosa [15],Active
same,Activity,Pseudomonas aeruginosa [16],Active
same,Activity,Pseudomonas aeruginosa [17],Active
same,Activity,Pseudomonas aeruginosa [18],Active
same,Activity,Pseudomonas aeruginosa [19],inactive
same,Activity,L02,Non-Toxic
same,Activity,Pseudomonas aeruginosa [20],1.78%
same,Activity,[21],Non-Toxic
same,Activity,[22],Non-Toxic
same,Activity,[23],Non-Toxic
same,Activity,[24],Non-Toxic
